113 compounds from a melting point compilation (Tetko et al.) can be followed below.

Regarding `O=S(=O)(n1ccnc1)C(F)(F)F`, the melting point (as a rule, the temperature of the solid-liquid transition) lay in the range of 19 to 21 °C.

In the case of `NNC(=O)c1ccc(Cl)c(Br)c1`, the melting point fell in the range of 165 to 168 °C.

With `Oc1ccccc1N1CCCCC1`, the melting point amounted to 75 °C.

In turn, `Cn1ccc2cc(C(=O)O)ccc21` displayed a melting point of 221 to 223 °C.

On to `CCc1cc2ccccc2c2ccccc12`, for which the melting point worked out at 62.5 °C.

Compound `CCCS(=O)CCC` displayed a melting point of 22.5 °C.

`CCCOC1CCC2C3CCC4=CC(O)CCC4(C)C3CCC12C` (stereo not drawn): the melting point lay in the range of 123 to 127 °C.

`C#CC1(OC(N)=O)CCCCC1` registered a melting point of 96 °C.

With `CC(C)(C)OC(=O)c1cccc(N)c1`, the melting point was in the range of 81 to 83 °C.

Take `Nc1c(Cl)cc(F)cc1Cl`: the melting point came out at 56 °C.

`FC(F)(F)c1ccc2c(c1)Nc1ccccc1S2` had a melting point of 189 °C.

With `CSc1nn(-c2ccccc2)cc1C#N`, the melting point lay in the range of 106 to 108 °C.

In turn, `Cc1ccc2cc3c(cc2n1)CCC(C)N3` (stereo not drawn) had a melting point of 171 °C.

`NCCCCCCCCCN` showed a melting point of 38 °C.

Turning to `CC1(C)CC(=O)c2cc(-c3ccccc3)n(-c3ccc(F)cc3)c2C1`, the melting point was 208 to 210 °C.

On to `CNC(=O)ON=C(C)C(C)SC` (stereo not drawn), for which the melting point was 37 °C.

`OCc1ccc2sccc2c1` registered a melting point of 91 to 92 °C.

Consider `O=[N+]([O-])c1cn[nH]c1`, for which the melting point worked out at 161 °C.

`CCCCc1nc(Cl)c(CO)n1Cc1ccc(-c2ccccc2-c2nn[nH]n2)cc1` registered a melting point of 184 °C.

`COc1ccc2[nH]cc(CCN)c2c1`: the melting point was found to be 122 °C.

The compound `C[Si](C)(C)[Si]([Si](C)(C)C)([Si](C)(C)C)[Si](C)(C)C` had a melting point of 267 °C.

As for `O=[N+]([O-])c1cc(Cl)ccc1F`, the melting point stood at 8.3 °C.

Turning to `CCCC(=O)c1ccccc1`, the melting point was determined as 12 °C.

In the case of `C=CCC1(C2C=CCC2)C(=O)NC(=O)NC1=O` (stereo not drawn), the melting point was 140 °C.

Consider `CC1=CC1`, for which the melting point is -100 °C.

Consider `O=C(O)c1ccc(C(=O)O)o1`, for which the melting point was found to be 342 °C.

`O=C(c1ccccc1)c1ccc2c3c(cccc13)CC2` had a melting point of 101 °C.

With `CN(N=O)C1=CC(=O)C2(C)CCC1C2(C)C` (stereo not drawn), the melting point turned out to be 167 °C.

On to `N#Cc1nccc2ccccc12`, for which the melting point was found to be 89 °C.

`O=C1NC(=O)C(=Cc2ccc(Cl)cc2)C(=O)N1` had a melting point of 243 °C.

`CC(=O)OC1CC2C(C)C(=O)C3(C(OC(C)=O)CC4C(C)(C)CCC(OC(C)=O)C4(C=O)C13)C2OC(C)=O` (stereo not drawn) gave a melting point of 250 to 252 °C.

For `Cc1cc(C(=O)O)n(C(C)(C)C)n1`, the melting point fell in the range of 149 to 153 °C.

Take `CC(C)CC(=O)C1C(=O)c2ccccc2C1=O`: the melting point was found to be 68.5 °C.

`Brc1ccccc1Oc1ccccc1` yielded a melting point of less than 20 °C.

For the compound `CC(=O)Nc1ncc([N+](=O)[O-])s1`, the melting point was found to be 264 °C.

As for `S=C=NCc1ccc(Cl)cc1Cl`, the melting point fell in the range of 26 to 28 °C.

Consider `COc1ccc(-n2cncn2)cc1`, for which the melting point stood at 97 °C.

Take `CC12CCC(C(=O)C(Br)(Br)C1=O)C2(C)C` (stereo not drawn): the melting point turned out to be 155 °C.

`CSc1nc(-c2ccc(C)cc2)nc(N)c1C#N`: the melting point lay within 213 to 214 °C.

With `CC(=O)c1ccc(NC(=O)C(C(F)(F)F)(C(F)(F)F)C(F)(F)F)cc1`, the melting point lay within 223 to 225 °C.

As to `Cc1cn(C2CC(F)C(CO)O2)c(=O)[nH]c1=O` (stereo not drawn), the melting point amounted to 177 °C.

With `O=C(Nc1ccccc1)C(F)(F)F`, the melting point lay within 86 to 90 °C.

Take `O=C(O)Cc1ccc(F)cc1Cl`: the melting point is 104 °C.

`N#Cc1ccc(O)c(Cl)c1` had a melting point of 150 to 153 °C.

Regarding `O=Cc1ccccc1Oc1ccccn1`, the melting point was in the range of 51 to 52 °C.

The compound `C[Si](C)(C)Nc1ncnc2c1ncn2[Si](C)(C)C` registered a melting point of 86 °C.

`CCCCCCCCCCCCCCCC(=O)OCC=C(C)C=CC=C(C)C=CC1=C(C)CCCC1(C)C`: the melting point is 28.5 °C.

In turn, `CS(=O)(=O)c1ccc(N)c(Cl)c1` registered a melting point of 191 to 198 °C.

`Brc1ccsc1Br` registered a melting point of -17.5 °C.

For the compound `O=[N+]([O-])c1ccc(N2CCNCC2)c(Cl)c1`, the melting point is 105 to 106 °C.

Take `Nc1c(C(=O)O)sc2nc(-c3ccccc3)cc(C(F)(F)F)c12`: the melting point was in the range of 159 to 161 °C.

In the case of `O=C1CCCCC1C1CCCCC1` (stereo not drawn), the melting point was -32 °C.

For the compound `Cc1cc(C(=O)O)ccc1F`, the melting point was 167 °C.

`O=C1CCC(=O)N1I` registered a melting point of 204 °C.

With `COC(=O)c1cccc2cc[nH]c12`, the melting point lay in the range of 46 to 47 °C.

Regarding `CNc1ccc(O)c2c1C(=O)c1c(O)ccc(NC)c1C2=O`, the melting point stood at 217 °C.

For the compound `O=C(N[N+](=O)[O-])c1ccccc1`, the melting point worked out at 143 °C.

In the case of `Cc1noc(-c2ccccc2)c1C(=O)O`, the melting point is 190 to 191 °C.

In the case of `CC(CCC(=O)O)Cc1ccccc1` (stereo not drawn), the melting point worked out at 56 °C.

Compound `C=CCNC(=O)C(O)C(O)C(=O)NCC=C` (stereo not drawn) returned a melting point of 182 to 186 °C.

For `CCCCc1cc2ccccc2c(O)c1C(C)=O`, the melting point came out at 62 °C.

On to `COc1c(Br)cc(C)c2c1CCC2`, for which the melting point was determined as 30 °C.

In turn, `CC1c2ccccc2-c2ccccc21` yielded a melting point of 46.5 °C.

`O=C(O)c1c(F)c(F)c(F)c(F)c1C(=O)O` had a melting point of 163 °C.

Turning to `Nc1c(Br)cc(F)c(Cl)c1Br`, the melting point turned out to be 98 °C.

Turning to `CCCCNC(=O)n1cc(F)c(=O)[nH]c1=O`, the melting point was determined as 136 °C.

In turn, `CC(=O)Nc1ccc(S(=O)(=O)Cl)cc1` returned a melting point of 149 °C.

On to `O=c1cc(C(F)(F)F)c2cc3c4c(c2o1)CCCN4CCC3`, for which the melting point lay in the range of 167 to 168 °C.

Compound `CC(=O)C1CCC2(C)C(CCC3C4CCC(O)C4(C)CCC32)C1` (stereo not drawn) showed a melting point of 145 °C.

Consider `O=C1CC(c2ccccc2)Cc2ccncc21` (stereo not drawn), for which the melting point worked out at 83 °C.

In turn, `N#C/C(=C\c1ccccc1)c1nc2ccccc2s1` gave a melting point of 105 °C.

As for `Nc1c(CN2CCOCC2)c(=O)oc2ccccc12`, the melting point came out at 192 °C.

As for `CCN(CC)c1ccc2cc(-c3nc4ccccc4s3)c(=O)oc2c1`, the melting point was in the range of 205 to 208 °C.

Compound `CC1(C)CC(=O)C(=NNc2ccccc2[N+](=O)[O-])C(=O)C1` gave a melting point of 139 to 140 °C.

As to `CC1CCCC(C)C1` (stereo not drawn), the melting point was -90.1 °C.

On to `C/C(=N\CCc1ccccn1)c1c(O)c2ccccc2n(-c2ccccc2)c1=O`, for which the melting point lay in the range of 219 to 220 °C.

As for `O=[N+]([O-])c1ccccc1/C=C/c1ccccn1`, the melting point amounted to 214 °C.

The compound `Cc1oc(-c2ccccc2)cc1C(=O)Cl` had a melting point of 85 to 88 °C.

`CC12Cc3nonc3CC1CCC1C2CCC2(C)C1CCC2(C)O` (stereo not drawn) returned a melting point of 152 °C.

`Fc1ccc(P(c2ccc(F)cc2)c2ccc(F)cc2)cc1`: the melting point came out at 80 °C.

Take `Cn1c(=O)on(-c2ccc(Cl)c(Cl)c2)c1=O`: the melting point came to 123 °C.

On to `COC(=O)c1ccc(C#Cc2ccccc2)o1`, for which the melting point was in the range of 79 to 82 °C.

As to `O=C(c1ccc(Br)cc1)[C@H]1CCCC[C@H]1C(=O)O` (relative stereo), the melting point was 171 to 175 °C.

`CC(C)(c1ccc(OC(=O)Cl)cc1)c1ccc(OC(=O)Cl)cc1` gave a melting point of 90 to 95 °C.

`CC(C)NC(=O)C(C)C` registered a melting point of 103 to 104 °C.

Turning to `CCOC(=O)C(Br)=NNc1ccc([N+](=O)[O-])cc1`, the melting point lay in the range of 199 to 200 °C.

For the compound `CC12CCC(=O)CC1CCC13OC14CCC(=O)C4(C)CCC23` (stereo not drawn), the melting point was 171 to 173 °C.

`CC12CC(c3ccccc3)C([N+](=O)[O-])C(O1)c1ccccc1N2` (stereo not drawn): the melting point fell in the range of 193 to 194 °C.

In turn, `FC(F)(F)c1ccc(Br)nc1` showed a melting point of 46 to 47 °C.

Regarding `O=Cc1ccc(OCc2ccc(Cl)c(Cl)c2)cc1`, the melting point is 92 to 93 °C.

`C#Cc1ccc(C(C)=O)cc1` showed a melting point of 68 to 70 °C.

The compound `Cc1cc(C(=O)NCCc2ccc(S(=O)(=O)NC(=O)NN3CCCCCC3)cc2)no1` gave a melting point of 189 °C.

As for `Cc1ccc(NC(=O)C(C)c2ccc(C)cc2)cc1` (stereo not drawn), the melting point amounted to 105 °C.

Consider `C=C(NC(C)=O)C(=O)O`, for which the melting point lay in the range of 184 to 187 °C.

As for `CCOC(=O)c1sc2sc(C(=O)OCC)c(N=C3SCCS3)c2c1N=C1SCCS1`, the melting point turned out to be 198 °C.

Regarding `CNC(=C[N+](=O)[O-])NCCSCc1ccc(CN(C)C)o1`, the melting point was 69 °C.

The compound `CC(C)CCCCCO` gave a melting point of -106 °C.

Compound `Cc1nc(-c2cccc(N=C=O)c2)no1` returned a melting point of 72 to 74 °C.

`O=[N+]([O-])c1cc2nccnc2cc1Cl`: the melting point is 210 to 213 °C.

On to `CBr`, for which the melting point is -93.7 °C.

In turn, `Cc1nn(C)c(Cl)c1C(=O)O` had a melting point of 195 to 198 °C.

Take `Cc1ccc(C#N)n1C`: the melting point fell in the range of 53 to 56 °C.

`Cc1ccc(-c2onc(C(=O)c3ccc(Cl)cc3)c2S(=O)(=O)c2ccccc2)cc1` registered a melting point of 149 °C.

Compound `C=C1C[C@H]1C(O)C(=O)OC` (stereo partly drawn) came in with a melting point of 41.5 °C.

As for `NC(=O)CBr`, the melting point came out at 89 °C.

`CCN(CC)CCNc1ccc(CO)c2sc3ccccc3c(=O)c12` registered a melting point of 101 °C.

Take `CNS(=O)(=O)Cc1ccc2[nH]cc(CCN(C)C)c2c1`: the melting point was determined as 169 °C.

Compound `CCOc1ccc2[nH]c(=S)sc2c1` came in with a melting point of 199 °C.

Compound `C/C(CCc1ccc2c(c1)NC(C)CC2)=N\NC(N)=O` (stereo not drawn) came in with a melting point of 128 °C.

`O=[N+]([O-])c1ccccc1Nc1ccccc1` returned a melting point of 75 °C.

As to `COc1ccc(-c2nnc3n2NC(c2ccc(O)c(OC)c2)S3)cc1` (stereo not drawn), the melting point was 173 °C.

For `Nc1ccc(Oc2ccccc2)nc1`, the melting point is 71 to 72 °C.

Turning to `CC12C=CC(=O)C=C1CCC1C2CCC2(C)C(O)CCC12` (stereo not drawn), the melting point was 165 °C.
